Patent US6693208B2, “Compounds and compositions for delivering active agents” (Emisphere Technologies, Inc., priority 1999, dated 2004)

Assay: Heparin oral/intracolonic delivery in rats, heparin activity by APTT
Format: in vivo, Sprague-Dawley rats
Protocol: Oral gavage (PO) and/or intracolonic (IC) dosing solutions containing a delivery agent compound and heparin sodium USP in 25% aqueous propylene glycol were prepared. Either the sodium salt of the compound was used or the free acid was converted to the sodium salt with one equivalent of sodium hydroxide. Typically, delivery agent compound and heparin (about 166-182 IU/mg) were mixed by vortex as dry powders. This dry mixture was dissolved in 25% v/v aqueous propylene glycol, vortexed and placed in a sonicator (about 37° C.). The pH was adjusted to about 7 (6.5 to 8.5) with aqueous NaOH (2N). The dosing solution was sonicated to produce a clear solution. The final volume was adjusted to 3.0 mL. The final delivery agent compound dose, heparin dose and volume dose amounts are listed below in Table 2.
The typical dosing and sampling protocols were as follows. Male Sprague-Dawley rats weighing between 275-350 g were fasted for 24 hours and were anesthetized with ketamine hydrochloride (88 mg/kg) intramuscularly immediately prior to dosing. A dosing group of five rats was administered one of the dosing solutions. For oral gavage (PO) dosing, an 11 cm Rusch 8 French catheter was adapted to a 1 mL syringe with a pipette tip. The syringe was filled with dosing solution by drawing the solution through the catheter, which was then wiped dry. The catheter was placed down the esophagus leaving 1 cm of tubing past the rat's incisors. Solution was administered by pressing the syringe plunger. For intracolonic (IC) dosing, a 7.5 cm 8 fr Rusch catheter was adapted to a 1 ml syringe with a pipette tip. The dosing catheter was inserted into the colon through the anus. until the tube was no longer visible. The dosing solution was expressed slowly into the colon.
Citrated blood samples were collected by cardiac puncture following the administration of ketamine (88 mg/kg), typically at time—0.25, 0.5, 1.0 and 1.5 hours. Heparin activity was determined by utilizing the activated partial thromboplastin time (APTT) according to the method of Henry, J. B., Clinical Diagnosis and Management by Laboratory Methods, Philadelphia, Pa., W. B. Saunders (1979). Previous studied indicated baseline values of about 20 sec. Results from the five rats in each group were averaged for each time point. The maximum is reported below in Table 2.

[1] = IC, 1 ml/kg, compound 50 mg/kg, heparin 100 mg/kg
[2] = IC, 1 ml/kg, compound 50 mg/kg, heparin 25 mg/kg
[3] = PO, 3 ml/kg, compound 200 mg/kg, heparin 100 mg/kg

Compound	Mean Peak APTT (sec) ± SD) [1] [s]	Mean Peak APTT (sec) ± SD) [2] [s]	Mean Peak APTT (sec) ± SD) [3] [s]
COc1ccc(O)c(C(=O)Nc2ccc(CCCC(=O)O)cc2)c1 [Compound 9]	192.8 ± 50.9	–	–
O=C([O-])CCc1ccc(NC(=O)c2ccccc2O)c(F)c1.[Na+] [Compound 5, sodium 3-(4-salicyloylamino-3-fluorophenyl)propionate]	–	89.9 ± 68.6	32.6 ± 5
O=CNc1ccccc1C(=O)Nc1ccc(CCC(=O)O)cc1 [Compound 7]	–	28.6 ± 6.1	–
Cc1cc(F)cc(C(=O)Nc2ccc(CCC(=O)O)cc2)c1O [Compound 6]	–	90.6 ± 50.9	33.8 ± 18.7
COc1ccccc1C(=O)NCCCCCCCCCCC(=O)O [Compound 3]	–	44.2 ± 16.2	–
COc1ccc(O)c(C(=O)Nc2ccc(CCC(=O)O)cc2)c1 [Compound 8]	266.4 ± 165.7	–	–
COc1ccc(O)c(C(=O)NCCCCCCCC(=O)O)c1 [Compound 1]	–	102.3 ± 130.4	–
O=C(O)CCCCCCCCCNC(=O)c1cc(Cl)cc(Cl)c1O [Compound 4, N-(3,5-dichlorosalicyloyl)-10-aminodecanoic acid]	–	94 ± 47.5	–
